The results in this text go back to patent US7759367B2, “Pharmaceutical compositions and their uses” (Eisai R&D Management Co., Ltd., priority 2001, dated 2010).

Where two headings read alike, the source gives them in different places.

The subject of one assay is male mice of ddy strain. The assay is described as follows: Anticonvulsant action induced by AMPA (Test Example 2). It is filed as in vivo. To be noted: 25 mg/kg orally, AMPA 2 nmole/5 μl/minute/mouse into lateral ventricle 30 minutes or 1 hour after dosing. Here is the method: A test compound was suspended in a 0.5% methyl cellulose solution or in sesame oil and was orally administered (25 mg/kg) to male mice of ddy strain. After 30 minutes or 1 hour from the oral administration, AMPA was continuously injected (2 nmole/5 μl/minute/mouse) into lateral ventricle to induce the convulsions. The effect was judged by a time-extending action until the convulsion takes place by a continuous injection of AMPA.

The test system of a further assay is Female Lewis rats. The assay is described as follows: Experimental autoimmune encephalomyelitis model (Test Example 10). It is filed as in vivo, rat. The conditions noted are these: p.o. 5, 10 and 20 mg/kg, 10-16 dpi. As for the experimental part: Female Lewis rats (205±10 g) obtained from Charles River, Kent UK, were housed in pairs under environmentally controlled conditions (6:00a.m.-6:00p.m. light/dark cycle; 22-24° C.; 45-55% humidity) and allowed free access to food and water. Experimental groups consisted of 9-12 animals. Rats were immunised in each hind foot with 20-50 μl of inoculum containing 50 μg guinea pig myelin basic protein (MBP; final concentration 2 mg/ml), emulsified in Freund's complete adjuvant (CFA; Sigma, UK) containing Mycobacterium tuberculosis H37Ra (final concentration 5.5 mg/ml; Difco Laboratories, UK). Animals were weighed and monitored daily and clinical disease scored as (0) no clinical signs; (1) flaccid tail and weight loss; (2) hind limb hypotonia with further weight loss; (3) complete hind limb paralysis; (4) paraplegia and (5) death. […] During the period of compound administration (10-16 days post immunisation; dpi) animals were scored 15 h after injection of vehicle or compound to avoid any acute effect of treatment on disease score. Compounds were dissolved/suspended in 0.5% methyl cellulose using a hand held Polytron homogeniser (PT1200; 2 min). Rats were dosed p.o. with either methyl cellulose vehicle (2.5 ml/kg) or compound at 5, 10 and 20 mg/kg.

[1] abbreviates: primary culture of rat embryo cerebral cortex nerve cells, Fura2-AM, 2 μM AMPA, 1 μM MK-801.
The mark [2] stands for this setting: suppression of AMPA-induced calcium influx into nerve cells, Table 2.
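Wherever IC50 is given: neurons cultured at least 8 to 10 days atop an astrocyte layer in 96-well plates, calcium entry read as the change in Fura2 fluorescence ratio at 340/380 nm excitation.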

Experimental for AMPA receptor: Cerebral cortex was cut out from the brain of rat of gestational 18 days and treated with trypsin and DNase to disperse the cells. The cells were flown by MEM containing 10% of serum, sown in a culture bottle and astrocytes were proliferated. The astrocytes were re-dispersed by trypsin and sown in a 96-well plate. After incubation for one week, it was confirmed that the astrocytes covered all over the bottom and then the nerve cells of cerebral cortex which was dispersed by the above method were sown thereupon. After incubation for 24 hours, the medium was changed, the incubation was carried out for one week and, after that, the medium was changed to that containing 1 μM of MK-801. Nerve cells which were incubated for not shorter than 8 to 10 days were used.
Calcium influx into the cells was measured using Fura2-AM which was a calcium-sensitive fluorescent dye. It was treated in a medium containing Fura2-AM for 1 hour, incorporated into the cells, exchanged to a Tyrode solution containing 1 μM MK-801 and stimulation was carried out using 2 μM AMPA. Change in the amount of calcium flown into the cells were measured as the change in the fluorescent intensity at the exciting wave length of 340/380 nm.

One may read the IC50 as the concentration needed to halve the response being measured. On to `N#Cc1ccccc1-c1cc(-c2ccccn2)cn(-c2cccc(N)c2)c1=O` [Example 9, 3-(2-Cyanophenyl)-5-(2-pyridyl)-1-(3-aminophenyl)-1,2-dihydropyridin-2-one], for which the “Anticonvulsant action (time-extending action until convulsion by continuous AMPA injection)” value (shortened to “Anticonvulsant action”) in the assay with male mice of ddy strain was “significant anticonvulsant action”. Also, it took 30 nM to reach half-maximal inhibition in the assay on AMPA receptor (setting [1]) (IC50).

`CN(C)c1cccc(-n2cc(-c3ccccn3)cc(-c3ccccc3C#N)c2=O)c1` [Example 12, 3-(2-Cyanophenyl)-5-(2-pyridyl)-1-(3-dimethylaminophenyl)-1,2-dihydropyridin-2-one]: in the assay on male mice of ddy strain, the “Anticonvulsant action” value was “significant anticonvulsant action”. For the same compound, the IC50 with AMPA receptor (setting [1]) was 100 nM. On the same counts, the results for `N#Cc1ncccc1-c1cc(-c2ccccn2)cn(-c2ccccc2)c1=O` [Example 16, 3-(2-Cyano-3-pyridyl)-5-(2-pyridyl)-1-phenyl-1,2-dihydropyridin-2-one] are “significant anticonvulsant action” and 100 nM.

In the case of `N#Cc1ccccc1-c1cc(-c2ccccn2)cn(-c2cccnc2)c1=O` [Example 32, 3-(2-Cyanophenyl)-5-(2-pyridyl)-1-(3-pyridyl)-1,2-dihydropyridin-2-one], the “Anticonvulsant action” value with male mice of ddy strain is “significant anticonvulsant action”. In the assay with Female Lewis rats, the “Effect on EAE vs vehicle-administered group” value is recorded as “superior effect to the vehicle-administered group”. This compound also registered an IC50 in the assay on AMPA receptor (setting [1]) of 100 nM. For the compound `N#Cc1ccccc1-c1cc(-c2ccccc2)cn(-c2ccccc2)c1=O` [Example 41, 3-(2-Cyanophenyl)-1,5-diphenyl-1,2-dihydropyridin-2-one], in the assay with male mice of ddy strain, the “Anticonvulsant action” value is listed as “significant anticonvulsant action”. In the assay on AMPA receptor (setting [1]), this compound showed an IC50 of 80 nM. As for `O=c1c(-c2cccnc2F)cc(-c2ccccn2)cn1-c1ccccc1` [Example 76, 3-(2-Fluoro-3-pyridyl)-5-(2-pyridyl)-1-phenyl-1,2-dihydropyridin-2-one], the “Anticonvulsant action” value in the assay on male mice of ddy strain is reported as “significant anticonvulsant action”. Also, the “Effect on EAE vs vehicle-administered group” value with Female Lewis rats is “superior effect to the vehicle-administered group”. `N#Cc1cccnc1-c1cc(-c2ccccn2)cn(-c2ccccc2)c1=O` [Example 78, 3-(3-Cyano-2-pyridyl)-5-(2-pyridyl)-1-phenyl-1,2-dihydropyridin-2-one]: the “Anticonvulsant action” value with male mice of ddy strain was “significant anticonvulsant action”. In addition, the IC50 in the assay with AMPA receptor (setting [1]) turned out to be 1400 nM. In the case of `N#Cc1ccccc1-c1cc(-c2ccccn2)cn(-c2ccc(F)cc2)c1=O` [Example 91, 3-(2-Cyanophenyl)-5-(2-pyridyl)-1-(4-fluorophenyl)-1,2-dihydropyridin-2-one], the “Anticonvulsant action” value in the assay on male mice of ddy strain is “significant anticonvulsant action”. In addition, in the assay with AMPA receptor (setting [1]), the IC50 is 50 nM. Consider `COc1ccccc1-n1cc(-c2ccccn2)cc(-c2ccccc2C#N)c1=O` [Example 126, 3-(2-Cyanophenyl)-5-(2-pyridyl)-1-(2-methoxyphenyl)-1,2-dihydropyridin-2-one], for which the “Anticonvulsant action” value in the assay with male mice of ddy strain is listed as “significant anticonvulsant action”. `O=c1c(-c2ccccc2Cl)cc(-c2ccccn2)cn1-c1cccnc1` [Example 128, 3-(2-Chlorophenyl)-5-(2-pyridyl)-1-(3-pyridyl)-1,2-dihydropyridin-2-one]: in the assay on male mice of ddy strain, the “Anticonvulsant action” value is on record as “significant anticonvulsant action”. Turning to `N#Cc1sccc1-c1cc(-c2ccccn2)cn(-c2cccnc2)c1=O` [Example 137, 3-(2-Cyanothiophen-3-yl)-5-(2-pyridyl)-1-(3-pyridyl)-1,2-dihydropyridin-2-one], in the assay on male mice of ddy strain, the “Anticonvulsant action” value is reported as “significant anticonvulsant action”.

For the compound `O=c1c(-c2cccnc2F)cc(-c2ccccn2)cn1-c1cccnc1` [Example 139, 3-(2-Fluoro-3-pyridyl)-5-(2-pyridyl)-1-(3-pyridyl)-1,2-dihydropyridin-2-one], in the assay with male mice of ddy strain, the “Anticonvulsant action” value was “significant anticonvulsant action”. Also, the “Effect on EAE vs vehicle-administered group” value with Female Lewis rats is given as “superior effect to the vehicle-administered group”. For `N#Cc1ccccc1-c1cc(-c2ncccn2)cn(-c2ccccc2)c1=O` [Example 164, 3-(2-Cyanophenyl)-1-phenyl-5-(2-pyrimidinyl)-1,2-dihydropyridin-2-one], in the assay with male mice of ddy strain, the “Anticonvulsant action” value is listed as “significant anticonvulsant action”. In addition, in the assay with Female Lewis rats, the “Effect on EAE vs vehicle-administered group” value is recorded as “superior effect to the vehicle-administered group”. Besides, the IC50 with AMPA receptor (setting [2]) is 80 nM.

For `N#Cc1ccccc1-c1cc(-c2cnccn2)cn(-c2ccccc2)c1=O` [Example 199, 3-(2-Cyanophenyl)-1-phenyl-5-(2-pyrazinyl)-1,2-dihydropyridin-2-one], the “Anticonvulsant action” value in the assay with male mice of ddy strain is “significant anticonvulsant action”. Regarding `N#Cc1ccccc1-c1cc(-c2ncccn2)cn(-c2cccnc2)c1=O` [Example 261, 3-(2-Cyanophenyl)-1-(3-pyridyl)-5-(2-pyrimidinyl)-1,2-dihydropyridin-2-one], in the assay with male mice of ddy strain, the “Anticonvulsant action” value is “significant anticonvulsant action”. Also, in the assay with Female Lewis rats, the “Effect on EAE vs vehicle-administered group” value is listed as “superior effect to the vehicle-administered group”. Consider `O=c1c(-c2cccnc2F)cc(-c2ncccn2)cn1-c1ccccc1` [Example 262, 3-(2-Fluoropyridin-3-yl)-1-phenyl-5-(2-pyrimidinyl)-1,2-dihydropyridin-2-one], for which the “Anticonvulsant action” value in the assay with male mice of ddy strain is on record as “significant anticonvulsant action”. In the assay with Female Lewis rats, the “Effect on EAE vs vehicle-administered group” value is “superior effect to the vehicle-administered group”. Further, in the assay on AMPA receptor (setting [2]), the IC50 worked out at 300 nM. On to `N#Cc1ncccc1-c1cc(-c2ncccn2)cn(-c2ccccc2)c1=O` [Example 264, 3-(2-Cyanopyridin-3-yl)-1-phenyl-5-(2-pyrimidyl)-1,2-dihydropyridin-2-one], for which, in the assay on male mice of ddy strain, the “Anticonvulsant action” value is “significant anticonvulsant action”. Besides, in the assay on Female Lewis rats, the “Effect on EAE vs vehicle-administered group” value is listed as “superior effect to the vehicle-administered group”.

For `O=c1c(-c2ccccc2[N+](=O)[O-])cc(-c2ccccn2)cn1-c1ccccc1` [Example 270, 3-(2-Nitrophenyl)-1-phenyl-5-(2-pyridyl)-1,2-dihydropyridin-2-one], in the assay on male mice of ddy strain, the “Anticonvulsant action” value is recorded as “significant anticonvulsant action”. With `N#Cc1ccccc1-c1cc(-c2cccc(N)n2)cn(-c2ccccc2)c1=O` [Example 298, 5-(2-Aminopyridin-6-yl)-3-(2-cyanophenyl)-1-phenyl-1,2-dihydropyridin-2-one], the “Anticonvulsant action” value in the assay on male mice of ddy strain is on record as “significant anticonvulsant action”.
